Data as given in patent US11639371B2, “Peptidylic inhibitors of nucleolin (NCL) targeting CAG-repeat RNA toxicity and methods for reducing polyQ-mediated toxicity in polyQ diseases” (The Chinese University of Hong Kong, priority 2016, dated 2023).
Peptide text beside a SMILES is read from it.

How the values were obtained:
[1] = tested on: primary rat cortical neurons; test: Cytotoxicity test on primary rat cortical neurons; conditions: wild-type primary rat cortical neurons
[2] = tested on: CTG480 flies; test: External eye assay, CTG480 flies (Myotonic dystrophy 1); assay type: in vivo, Drosophila
Procedure: (§1) For pseudopupil assay, flies were raised at 21.5° C. on cornmeal medium supplemented with dry yeast. For climbing ability assay, lifespan analysis as well as external eye assay, flies were raised at 25° C. on cornmeal medium supplemented with dry yeast. We usually feed flies at larval stage unless otherwise indicated. For larval stage treatment, third instar larvae were fed with different concentration of TAT-P3L dissolved in 2% sucrose solution for 2 h and then continued to culture in standard fly food. For adult stage treatment, 5 or 10 day-old adult flies were starved for 8 h and then fed with different concentrations of TAT-P3L dissolved in 2% sucrose solution overnight. After treatment, flies were cultured in standard fly food.
(§2) Pseudopupil assay^18 was performed on 12 day-old adult flies except for Httexon1CAG93 which 1 day-old adult flies were used for the assay. Images were captured by SPOT Insight CCD camera controlled by the SPOT Advanced software (Diagnostic instruments Inc.). External eye assay was performed on 1 day-old adult of CTG480 flies and 2 day-old adult of CGG90 flies using an Olympus SZX-12 stereomicroscope. […] Fly climbing ability was analyzed by negative geotaxis. […] After 1 h recovery, flies were banged to the bottom, and then scored for climbing ability as the percentage of flies remaining at the bottom (<2 cm) at 25s. […]

[3] = tested on: flMJDCAG84 flies; test: Pseudopupil assay, flMJDCAG84 flies; assay type: in vivo, Drosophila; conditions: MJD disease model
Procedure: as §1, §2

[4] = tested on: pre-rRNA in DsRedCAG100 flies; test: pre-rRNA expression by real-time PCR in DsRedCAG100 flies; assay type: in vivo; conditions: DsRedCAG100 Drosophila model, RNA toxicity only
Procedure: (§3) RNA was extracted from cells by Trizol reagent (Life Technologies), and 1 μg of purified RNA was then used for reverse-transcription using the ImPromII™ Reverse Transcription System (Promega). Random hexamer (Roche) was used as primers in reverse transcription. Taqman gene expression assays were performed on an ABI 7500 Real-time PCR system and data were analyzed as previously described^10. The following probes were used: pre-45s rRNA (Assay ID: AILJIZM), actin (Assay ID: Hs99999903_m1), pre-rRNA (Assay ID: AIMSG5U) and GAPDH for Drosophila (Assay ID: Dm01841186).
as §1

[5] = tested on: CGG90 flies; test: External eye assay, CGG90 flies (Fragile X syndrome); assay type: in vivo, Drosophila
Procedure: as §1, §2

[6] = tested on: MJDCAG78-expressing HEK293 cells; test: LDH cytotoxicity assay, MJD disease cell model; assay type: cell-based, Human; conditions: MJDCAG78-expressing HEK293, CAG-repeat RNA and polyQ protein
Procedure: (§4) Human embryonic kidney 293 cells were seeded on a 24-well plate at a density of 0.5×10^5, and pcDNA3.1-MJDCAG27/78 or, pEGFPCAG78 or, pcDNA3.1-SCA2CAG22/72/104 or pEGFP-trHttCAG23/73/145 construct was used to transfect the cells. Lactate dehydrogenase enzyme activity in the cell culture medium was measured 72 h post-transfection and drugs treatment using the Cytotox 96 non-radioactive cytotoxicity assay (Promega).

[7] = tested on: SCA2CAG72/104-expressing HEK293 cells; test: LDH cytotoxicity assay, SCA2 disease cell model; assay type: cell-based, Human; conditions: SCA2CAG72/104-expressing HEK293, CAG-repeat RNA and polyQ protein
Procedure: as §4

[8] = tested on: DsRedCAG100 flies; test: Pseudopupil assay, DsRedCAG100 flies; assay type: in vivo, Drosophila
Procedure: as §1, §2

[9] = tested on: Httexon1CAG93 flies; test: Pseudopupil assay, Httexon1CAG93 flies; assay type: in vivo, Drosophila; conditions: Htt disease model, 1 day-old adults
Procedure: as §1, §2

[10] = tested on: EGFPCAG78-expressing HEK293 cells; test: LDH cytotoxicity assay, EGFPCAG78 (only RNA toxicity); assay type: cell-based, Human
Procedure: as §4

[11] = tested on: DsRedCAG250 flies; test: Climbing ability assay, DsRedCAG250 flies; assay type: in vivo, Drosophila
Procedure: as §1, §2

[12] = tested on: pre-45s rRNA in EGFPCAG78 RNA expressing-HEK293 cells; test: pre-45s rRNA expression by real-time PCR in EGFPCAG78 RNA-expressing HEK293 cells; assay type: cell-based, Human; conditions: expanded CAG-repeat RNA-expressing HEK293 cells
Procedure: as §3

[13] = tested on: DsRedCAG250 flies; test: Lifespan analysis, DsRedCAG250 flies; assay type: in vivo, Drosophila
Procedure: as §1, §2

[14] = tested on: trHttCAG72/145-expressing HEK293 cells; test: LDH cytotoxicity assay, Htt disease cell model; assay type: cell-based, Human; conditions: trHttCAG72/145-expressing HEK293, CAG-repeat RNA and polyQ protein
Procedure: as §4

| SMILES | concentration with no observed cytotoxicity (viability not compromised) [1] | effect on degenerative phenotype (specificity) [2] | suppression of retinal degeneration (pseudopupil assay) [3] | pre-rRNA expression level [4] | effect on degenerative phenotype (specificity) [5] | suppression of cell death [6] | suppression of cell death [7] | suppression of neurodegeneration compared with TAT-P3 ([8]; 50 uM concentration) | inhibition of neurodegeneration (retinal degeneration, pseudopupil assay) ([8]; larval feeding, 12 day-old adults) | suppression of retinal degeneration (pseudopupil assay) [9] | suppression of EGFPCAG78 RNA-induced cell death ([10]; LDH enzyme activity, 72 h post-transfection and treatment) | IC50 ([10]; concentration that reduced LDH enzyme activity by 50% vs untreated control, EGFPCAG78 HEK293, read-out: IC50 in inhibiting expanded CAG-repeat RNA-induced cell death) [nM] | climbing ability ([11]; larval treatment, 5, 10 and 15 day-old adult DsRedCAG250 flies) | climbing ability ([11]; late adult stage treatment, DsRedCAG250 flies already showing degeneration) | pre-45s rRNA transcription level [12] | lifespan [13] | suppression of cell death [14] |
| --- | --- | --- | --- | --- | --- | --- | --- | --- | --- | --- | --- | --- | --- | --- | --- | --- | --- |
| CC[C@H](C)[C@H](NC(=O)CNC(=O)[C@H](CCCCN)NC(=O)[C@H](CO)NC(=O)[C@H](CCCCN)NC(=O)CNC(=O)[C@H](CC(=O)O)NC(=O)[C@H](CCCCN)NC(=O)[C@H](CO)NC(=O)[C@@H](NC(=O)[C@H](CC(C)C)NC(=O)[C@H](CCCNC(=N)N)NC(=O)[C@@H](NC(=O)[C@H](CCC(=O)O)NC(=O)[C@H](C)N)[C@@H](C)CC)C(C)C)C(=O)N[C@@H](C)C(=O)N[C@@H](Cc1ccc(O)cc1)C(=O)N[C@H](C(=O)N[C@@H](CCC(=O)O)C(=O)N[C@@H](Cc1ccccc1)C(=O)N[C@@H](CCCCN)C(=O)O)[C@@H](C)CC [P3L] (H-AEIRLVSKDGKSKGIAYIEFK-OH) | up to 25 μM |  |  |  |  |  |  |  |  |  |  |  |  |  |  |  |  |
| CC[C@H](C)[C@H](NC(=O)CNC(=O)[C@H](CCCCN)NC(=O)[C@H](CO)NC(=O)[C@H](CCCCN)NC(=O)CNC(=O)[C@H](CC(=O)O)NC(=O)[C@H](CCCCN)NC(=O)[C@H](CO)NC(=O)[C@@H](NC(=O)[C@H](CC(C)C)NC(=O)[C@H](CCCNC(=N)N)NC(=O)[C@@H](NC(=O)[C@H](CCC(=O)O)NC(=O)[C@H](C)NC(=O)[C@H](CCCNC(=N)N)NC(=O)[C@H](CCCNC(=N)N)NC(=O)[C@H](CCCNC(=N)N)NC(=O)[C@H](CCC(N)=O)NC(=O)[C@H](CCCNC(=N)N)NC(=O)[C@H](CCCNC(=N)N)NC(=O)[C@H](CCCCN)NC(=O)[C@H](CCCCN)NC(=O)[C@H](CCCNC(=N)N)NC(=O)CNC(=O)[C@@H](N)Cc1ccc(O)cc1)[C@@H](C)CC)C(C)C)C(=O)N[C@@H](C)C(=O)N[C@@H](Cc1ccc(O)cc1)C(=O)N[C@H](C(=O)N[C@@H](CCC(=O)O)C(=O)N[C@@H](Cc1ccccc1)C(=O)N[C@@H](CCCCN)C(=O)O)[C@@H](C)CC [TAT-P3L] (H-YGRKKRRQRRRAEIRLVSKDGKSKGIAYIEFK-OH) | up to 25 μM | did not mitigate the phenotypes | suppressed retinal degeneration | restore pre-rRNA expression level | did not mitigate the phenotypes | concentration-dependent suppression in cell death | concentration-dependent suppression in cell death | suppressed neurodegeneration more effectively than TAT-P3 | concentration-dependent inhibition of neurodegeneration | suppressed retinal degeneration | significantly suppressed | 700 | ameliorated the climbing ability | dose-dependent improvement of the climbing ability | restore the pre-45s rRNA transcription level | extended the lifespan | concentration-dependent suppression in cell death |
